Results from patent US6376518B1, “Acyl derivatives of 4-demethylpenclomedine, use thereof and preparation thereof” (Southern Research Institute, priority 1999, dated 2002).
Where two headings read alike, the source gives them in different places.

Legend:
human MX-1 mammary tumor = experiment: In vivo antitumor activity vs i.c.-implanted human MX-1 mammary tumor xenograft in athymic mice; conditions: ic MX-1; optimal doses (LD10 or less), schedule QD1-5, administered LP.
P388/BCNU leukemia = experiment: Antitumor activity against IP-implanted P388/BCNU leukemia in mice; conditions: P388/BCNU, Q1D × 5 (1); for MEDIAN DAY OF DEATH: dying mice only
P388/L-PAM leukemia = conditions: for 50-DAY SURV/TOTAL / % ILS / APPROX. NET LOG10 CHANGE IN TUMOR BURDEN AT END OF Rx / MEDIAN DAY OF DEATH: P388/L-PAM, Q1D × 5 (1); for MEDIAN DAY OF DEATH: dying mice only
P388/0 leukemia = conditions: P388/0, Q1D × 5 (1); for MEDIAN DAY OF DEATH: dying mice only
[1] = tumor-bearing rats, 14C-penclomedine; cited from earlier work
patients = patients with advanced solid tumors; one hour infusion for 5 consecutive days; cited from earlier work
P388/CPA leukemia = experiment: Antitumor activity against IP-implanted P388/CPA leukemia in mice; assay type: in vivo, murine; conditions: P388/CPA, Q1D × 5 (1)

SMILES: COc1nc(C(Cl)(Cl)Cl)c(Cl)c(OC)c1Cl [PEN, 3,5-dichloro-2,4-dimethoxy-6-(trichloromethyl)pyridine]
- Median % ILS (based on dying mice only) (human MX-1 mammary tumor): 88%
- Survivors (human MX-1 mammary tumor): 0/5
- 50-DAY SURV/TOTAL (P388/BCNU leukemia; IP 60.0 mg/kg/dose): 0/6
- % ILS (P388/BCNU leukemia; IP 60.0 mg/kg/dose): −6%
- APPROX. NET LOG10 CHANGE IN TUMOR BURDEN AT END OF Rx (P388/BCNU leukemia; IP 60.0 mg/kg/dose): +1.8
- MEDIAN DAY OF DEATH (P388/BCNU leukemia; IP 60.0 mg/kg/dose): 8.5
- 50-DAY SURV/TOTAL (P388/BCNU leukemia; IP 90.0 mg/kg/dose): 0/6
- % ILS (P388/BCNU leukemia; IP 90.0 mg/kg/dose): 0%
- APPROX. NET LOG10 CHANGE IN TUMOR BURDEN AT END OF Rx (P388/BCNU leukemia; IP 90.0 mg/kg/dose): +1.7
- MEDIAN DAY OF DEATH (P388/BCNU leukemia; IP 90.0 mg/kg/dose): 9.0
- 50-DAY SURV/TOTAL (P388/BCNU leukemia; IP 135.0 mg/kg/dose): 0/6
- % ILS (P388/BCNU leukemia; IP 135.0 mg/kg/dose): +27%
- APPROX. NET LOG10 CHANGE IN TUMOR BURDEN AT END OF Rx (P388/BCNU leukemia; IP 135.0 mg/kg/dose): +1.2
- 50-DAY SURV/TOTAL (P388/L-PAM leukemia; IP 60.0 mg/kg/dose): 0/6
- % ILS (P388/L-PAM leukemia; IP 60.0 mg/kg/dose): 0%
- APPROX. NET LOG10 CHANGE IN TUMOR BURDEN AT END OF Rx (P388/L-PAM leukemia; IP 60.0 mg/kg/dose): +1.4
- MEDIAN DAY OF DEATH (P388/L-PAM leukemia; IP 60.0 mg/kg/dose): 14.0
- 50-DAY SURV/TOTAL (P388/L-PAM leukemia; IP 90.0 mg/kg/dose): 0/6
- % ILS (P388/L-PAM leukemia; IP 90.0 mg/kg/dose): −8%
- APPROX. NET LOG10 CHANGE IN TUMOR BURDEN AT END OF Rx (P388/L-PAM leukemia; IP 90.0 mg/kg/dose): +1.6
- MEDIAN DAY OF DEATH (P388/L-PAM leukemia; IP 90.0 mg/kg/dose): 13.0
- 50-DAY SURV/TOTAL (P388/L-PAM leukemia; IP 135.0 mg/kg/dose): 0/6
- % ILS (P388/L-PAM leukemia; IP 135.0 mg/kg/dose): −8%
- APPROX. NET LOG10 CHANGE IN TUMOR BURDEN AT END OF Rx (P388/L-PAM leukemia; IP 135.0 mg/kg/dose): +1.6
- MEDIAN DAY OF DEATH (P388/L-PAM leukemia; IP 135.0 mg/kg/dose): 13.0
- activity in the P388/L-PAM tumor model (in words) (P388/L-PAM leukemia; mouse, in vivo): none of the three showed significant activity
- 50-DAY SURV/TOTAL (P388/0 leukemia; IP 60.0 mg/kg/dose): 0/6
- % ILS (P388/0 leukemia; IP 60.0 mg/kg/dose): +31%
- APPROX. NET LOG10 CHANGE IN TUMOR BURDEN AT END OF Rx (P388/0 leukemia; IP 60.0 mg/kg/dose): +0.4
- 50-DAY SURV/TOTAL (P388/0 leukemia; IP 90.0 mg/kg/dose): 0/6
- % ILS (P388/0 leukemia; IP 90.0 mg/kg/dose): +45%
- APPROX. NET LOG10 CHANGE IN TUMOR BURDEN AT END OF Rx (P388/0 leukemia; IP 90.0 mg/kg/dose): −0.8
- MEDIAN DAY OF DEATH (P388/0 leukemia; IP 90.0 mg/kg/dose): 18.0
- 50-DAY SURV/TOTAL (P388/0 leukemia; IP 135.0 mg/kg/dose): 0/6
- % ILS (P388/0 leukemia; IP 135.0 mg/kg/dose): +90%
- APPROX. NET LOG10 CHANGE IN TUMOR BURDEN AT END OF Rx (P388/0 leukemia; IP 135.0 mg/kg/dose): −4.8
- MEDIAN DAY OF DEATH (P388/0 leukemia; IP 135.0 mg/kg/dose): 21.0
- predominant radioactive species in the brain [1]: predominant radioactive species in the brain was penclomedine
- neurotoxicity (dysmetria, ataxia, vertigo) (patients): principal dose limiting toxicity
- 50-DAY SURV/TOTAL (P388/CPA leukemia; IP 60.0 mg/kg/dose): 0/6
- % ILS (P388/CPA leukemia; IP 60.0 mg/kg/dose): −5%
- APPROX. NET LOG10 CHANGE IN TUMOR BURDEN AT END OF Rx (P388/CPA leukemia; IP 60.0 mg/kg/dose): +1.7
- 50-DAY SURV/TOTAL (P388/CPA leukemia; IP 90.0 mg/kg/dose): 0/6
- % ILS (P388/CPA leukemia; IP 90.0 mg/kg/dose): −5%
- APPROX. NET LOG10 CHANGE IN TUMOR BURDEN AT END OF Rx (P388/CPA leukemia; IP 90.0 mg/kg/dose): +1.7
- 50-DAY SURV/TOTAL (P388/CPA leukemia; IP 135.0 mg/kg/dose): 0/6
- % ILS (P388/CPA leukemia; IP 135.0 mg/kg/dose): −5%
- APPROX. NET LOG10 CHANGE IN TUMOR BURDEN AT END OF Rx (P388/CPA leukemia; IP 135.0 mg/kg/dose): +1.7
